ChEMBL document CHEMBL5154803, “Spermine-Conjugated Short Proline-Rich Lipopeptides as Broad-Spectrum Intracellular Targeting Antibacterial Agents” (J Med Chem, 2022)
Values after ≈ are worked out from the molar mass of the structure shown. Active and inactive are the calls of the source. The calls are words filed in the database; no cut-off is given here. Where a SMILES comes first, the peptide text is derived from it. The star is where a group is joined. Lauroyl = CCCCCCCCCCCC(=O)*; Decanoyl = CCCCCCCCCC(=O)*; Spermine = NCCCNCCCCNCCCN*

Experiments:
Staphylococcus aureus [1] = assay: Additive antibacterial activity against MDR-methicillin-resistant Staphylococcus aureus ATCC BAA-44 assessed as fractional inhibitory concentration index in presence of chloramphenicol by checkerboard assay; format: functional
[2] = target: Bacterial 70S ribosome (Bacteria) (UniProt P0A7V0+P60723+P0AG67+P0A7R5+P0A7R9+P0A7S3+P0A7S9+P0AG59+P0ADZ4+P0A7T3+P0AG63+P0A7T7+P0A7U3+P0A7U7+P68679+P0A7V3+P0A7V8+P0A7W1+P02358+P02359+P0A7W7+P0A7X3+P0A7J3+P0A7J7+P0AA10+P0ADY3+P02413+P0ADY7+P0AG44+P0C018+P0A7K6+P0A7L0+P0A7L3+P0AG48+P61175+P0ADZ0+P60624+P68919+P0A7L8+P0A7M2+P0A7M6+P60422+P0AG51+P0A7N1+P0A7M9+P0A7N4+P0A7N9+P0A7P5+P0A7Q1+Q2EEQ2+P0A7Q6+P60438+P62399+P0AG55+P0A7K2); assay: Inhibition of 70S ribosome-mediated protein synthesis in Escherichia coli at 1XMIC incubated for 1 hr by renilla luciferase based luminescence assay; format: subcellular
Staphylococcus aureus [3] = assay: Additive antibacterial activity against MDR-methicillin-resistant Staphylococcus aureus ATCC BAA-44 assessed as fold change in chloramphenicol MIC by checkerboard assay; format: functional
Staphylococcus aureus [4] = assay: Additive antibacterial activity against MDR-methicillin-resistant Staphylococcus aureus ATCC BAA-44 assessed as fractional inhibitory concentration index in presence of tetracycline by checkerboard assay; format: functional
Staphylococcus aureus [5] = assay: Additive antibacterial activity against MDR-methicillin-resistant Staphylococcus aureus ATCC BAA-44 assessed as fold change in gentamicin MIC by checkerboard assay; format: functional
Bacterial 70S ribosome = assay: Binding affinity to Escherichia coli MRE600 70S ribosome assessed as inhibition constant preincubated for 90 mins followed by incubation with Rho-C12-PR-Spn for 90 mins by competitive fluorescence binding assay; format: subcellular
Staphylococcus aureus [6] = assay: Antibacterial activity against methicillin-resistant Staphylococcus aureus ATCC 33591 assessed as reduction in bacterial growth measured after 18 hrs by broth microdilution method; format: functional
Staphylococcus aureus [7] = assay: Additive antibacterial activity against MDR-methicillin-resistant Staphylococcus aureus ATCC BAA-44 assessed as chloramphenicol MIC by checkerboard assay; format: functional
[8] = tested on: Staphylococcus epidermidis; assay: Antibacterial activity against Staphylococcus epidermidis ATCC 12228 assessed as reduction in bacterial growth measured after 18 hrs by broth microdilution method; format: functional
Escherichia coli = assay: Bactericidal activity against Escherichia coli ATCC 25922 assessed as log reduction of bacterial growth at 5XMIC incubated for 2 hrs followed by plating on MHII agar pate for 24 hrs; format: functional; details: time 26 hrs
Staphylococcus aureus [9] = assay: Synergistic antibacterial activity against MDR-methicillin-resistant Staphylococcus aureus ATCC BAA-44 assessed as fractional inhibitory concentration index in presence of ampicillin by checkerboard assay; format: functional
Staphylococcus aureus [10] = assay: In vivo antibacterial activity against Staphylococcus aureus ATCC 25923 infected in BALB/c mouse model assessed as reduction of bacterial load in spleen at 5 mg/kg, ip administered as single dose measured after 24 hrs by colony counting based analysis (reference value: 6X10^3 CFU); format: functional
Staphylococcus aureus [11] = assay: In vivo antibacterial activity against Staphylococcus aureus ATCC 25923 infected in BALB/c mouse model assessed as reduction of bacterial load in liver at 5 mg/kg, ip administered as single dose measured after 24 hrs by colony counting based analysis (reference value: 8.1X10^4 CFU); format: functional
Staphylococcus aureus [12] = assay: Synergistic antibacterial activity against MDR-methicillin-resistant Staphylococcus aureus ATCC BAA-44 assessed as chloramphenicol MIC by checkerboard assay; format: functional
Staphylococcus aureus [13] = assay: Additive antibacterial activity against MDR-methicillin-resistant Staphylococcus aureus ATCC BAA-44 assessed as fold change in rifampicin MIC by checkerboard assay; format: functional
Staphylococcus aureus [14] = assay: Additive antibacterial activity against MDR-methicillin-resistant Staphylococcus aureus ATCC BAA-44 assessed as fold change in tetracycline MIC by checkerboard assay; format: functional
Cell membrane = assay: Disruption of bacterial cell membrane in Escherichia coli ATCC 25922 assessed as blebbing on the surface of the bacteria at 5XMIC by SEM analysis; format: subcellular

SMILES	fractional inhibitory concentration index (FICI) (Staphylococcus aureus [1])	inhibition [2]	fold change (FC) (Staphylococcus aureus [3])	fractional inhibitory concentration index (FICI) (Staphylococcus aureus [4])	fold change (FC) (Staphylococcus aureus [5])	Ki (Bacterial 70S ribosome) [µM]	MIC (Staphylococcus aureus [6]) [µM]	MIC (Staphylococcus aureus [7]) [µg/mL]	MIC [8] [µM]	Activity (Escherichia coli) [log10CFU/ml]	fractional inhibitory concentration index (FICI) (Staphylococcus aureus [9])	Activity (Staphylococcus aureus [10])	Activity (Staphylococcus aureus [11])	MIC (Staphylococcus aureus [12]) [µg/mL]	fold change (FC) (Staphylococcus aureus [13])	fold change (FC) (Staphylococcus aureus [14])	Activity (Cell membrane)
CCCCCCCCCC(=O)N1CCC[C@H]1C(=O)N[C@@H](CCCNC(=N)N)C(=O)N1CCC[C@H]1C(=O)N[C@@H](CCCNC(=N)N)C(=O)N1CCC[C@H]1C(=O)N1CCC[C@H]1C(=O)N[C@@H](CCCNC(=N)N)C(=O)NCCCNCCCCNCCCN (Decanoyl-PRPRPPR-Spermine)	2	Active	1	0.625	2	0.0338	3.1 (≈ 3.76 µg/mL)	1000	1.5 (≈ 1.82 µg/mL)	>3	0.313	<4 10^2CFU	<4 10^2CFU	1000	2	2	–
CCCCCCCCCCCC(=O)N1CCC[C@H]1C(=O)N[C@@H](CCCNC(=N)N)C(=O)N1CCC[C@H]1C(=O)N[C@@H](CCCNC(=N)N)C(=O)N1CCC[C@H]1C(=O)N1CCC[C@H]1C(=O)N[C@@H](CCCNC(=N)N)C(=O)NCCCNCCCCNCCCN (Lauroyl-PRPRPPR-Spermine)	–	Active	–	0.625	1	0.0217	1.5 (≈ 1.86 µg/mL)	–	1.5 (≈ 1.86 µg/mL)	>3	0.28	<4 10^2CFU	<4 10^2CFU	250	2	2	Active
